According to ChEMBL document CHEMBL3758166, “Fragment-based discovery of DNA gyrase inhibitors targeting the ATPase subunit of GyrB” (Bioorg Med Chem Lett, 2016):

Key:
[1] = target: DNA gyrase subunit B (Staphylococcus aureus, UniProt P0A0K8); experiment: Binding affinity to full length Staphylococcus aureus GyrB by STD-NMR spectroscopic analysis
[2] = Binding affinity to Escherichia coli ParE by STD-NMR Spectroscopic analysis
[3] = target: DNA gyrase (Staphylococcus aureus, UniProt P0A0K8+P20831); experiment: Inhibition of Staphylococcus aureus DNA gyrase ATPase activity using pBR322 DNA as substrate after 30 mins by fluorescence polarization assay; type: protein-complex assay

| IC50 [1] [µM] | IC50 [2] | IC50 [3] [nM] | IC50 ([2]; read-out: IC50) [µM] | SMILES |
| --- | --- | --- | --- | --- |
| 840 | Not Active | – | – | Cc1cc(O)[nH]c2nnc(-c3ccccc3)c1-2 |
| 50 | – | – | 50 | CCCC(=O)Nc1sccc1C(N)=O |
| 50 | – | – | – | O=c1[nH]cnc2scc(-c3cccs3)c12 |

More lines, now with the values behind:

| SMILES | IC50 [1] [µM] | IC50 [2] | IC50 [3] [nM] | IC50 ([2]; read-out: IC50) [µM] |
| --- | --- | --- | --- | --- |
| Cc1n[nH]c2c1C(c1ccccc1F)CC(=O)N2 (configuration not stated) | 840 | Not Active | – | – |
| Nc1nc(O)cc(-c2ccccc2)n1 | 50 | Not Active | – | – |
| O=c1ccc2c(-c3cnc(-c4cccnc4)s3)n[nH]c2[nH]1 | 50 | – | 265 | – |
| Cc1cc(=O)[nH]c2[nH]nc(-c3cnc(-c4cccnc4)s3)c12 | 50 | – | 3250 | – |
| O=c1cc(-c2ccccc2)c2c(-c3cnc(-c4cccnc4)s3)n[nH]c2[nH]1 | 50 | – | 1320 | – |
| O=C1Nc2ccccc2/C1=C\c1cccnc1 | 840 | – | – | 50 |
